Assay results from the NIST ThermoML archive (doi:10.1007/s10765-009-0581-7).

Experiment: xn = mol fraction of the nth substance listed
Conditions: for surface tension liquid-gas: Ring tensiometer; for mass density: 101 kPa, Liquid

CC#N [acetonitrile] + CCCO
Conditions | mass density [kg/m3] | surface tension liquid-gas [mN/m]
278.15 K, x1 = 0.1255 | 813.41 | 25.2
278.15 K, x1 = 0.2452 | 810.66 | 25.4
278.15 K, x1 = 0.3466 | 808.33 | 25.8
278.15 K, x1 = 0.4995 | 804.81 | 26.5
278.15 K, x1 = 0.6449 | 801.47 | 27.4
278.15 K, x1 = 0.7492 | 799.07 | 28.1
278.15 K, x1 = 0.8645 | 796.42 | 29.1
278.15 K, x1 = 0.9101 | 795.37 | 29.5
278.15 K, x1 = 1 | 793.3 | 30.5
283.15 K, x1 = 0.1255 | 809.44 | 24.8
283.15 K, x1 = 0.2452 | 806.61 | 25
283.15 K, x1 = 0.3466 | 804.22 | 25.4
283.15 K, x1 = 0.4995 | 800.61 | 26.1
283.15 K, x1 = 0.6449 | 797.18 | 27
283.15 K, x1 = 0.7492 | 794.72 | 27.7
283.15 K, x1 = 0.8645 | 792 | 28.7
283.15 K, x1 = 0.9101 | 790.92 | 29.1
283.15 K, x1 = 1 | 788.8 | 30.1
288.15 K, x1 = 0.1255 | 805.55 | 24.4
288.15 K, x1 = 0.2452 | 802.64 | 24.7
288.15 K, x1 = 0.3466 | 800.18 | 25
288.15 K, x1 = 0.4995 | 796.46 | 25.7
288.15 K, x1 = 0.6449 | 792.93 | 26.6
288.15 K, x1 = 0.7492 | 790.39 | 27.3
288.15 K, x1 = 0.8645 | 787.59 | 28.3
288.15 K, x1 = 0.9101 | 786.48 | 28.7
288.15 K, x1 = 1 | 784.3 | 29.7
293.15 K, x1 = 0.1255 | 799.41 | 24
293.15 K, x1 = 0.2452 | 796.56 | 24.3
293.15 K, x1 = 0.3466 | 794.15 | 24.6
293.15 K, x1 = 0.4995 | 790.51 | 25.3
293.15 K, x1 = 0.6449 | 787.05 | 26.2
293.15 K, x1 = 0.7492 | 784.57 | 26.9
293.15 K, x1 = 0.8645 | 781.82 | 27.9
293.15 K, x1 = 0.9101 | 780.74 | 28.3
293.15 K, x1 = 1 | 778.3 | 29.3
298.15 K, x1 = 0.1255 | 796.74 | 23.6
298.15 K, x1 = 0.2452 | 794.01 | 23.9
298.15 K, x1 = 0.3466 | 791.7 | 24.2
298.15 K, x1 = 0.4995 | 788.21 | 24.9
298.15 K, x1 = 0.6449 | 784.9 | 25.8
298.15 K, x1 = 0.7492 | 782.52 | 26.6
298.15 K, x1 = 0.8645 | 779.89 | 27.5
298.15 K, x1 = 0.9101 | 778.85 | 27.9
298.15 K, x1 = 1 | 776.75 | 28.9
303.15 K, x1 = 0.1255 | 792.49 | 23.2
303.15 K, x1 = 0.2452 | 789.62 | 23.5
303.15 K, x1 = 0.3466 | 787.18 | 23.8
303.15 K, x1 = 0.4995 | 783.51 | 24.5
303.15 K, x1 = 0.6449 | 780.02 | 25.4
303.15 K, x1 = 0.7492 | 777.52 | 26.2
303.15 K, x1 = 0.8645 | 774.75 | 27.1
303.15 K, x1 = 0.9101 | 773.66 | 27.5
303.15 K, x1 = 1 | 771.5 | 28.5
308.15 K, x1 = 0.1255 | 789.47 | 22.8
308.15 K, x1 = 0.2452 | 786.3 | 23.1
308.15 K, x1 = 0.3466 | 783.62 | 23.4
308.15 K, x1 = 0.4995 | 779.56 | 24.2
308.15 K, x1 = 0.6449 | 775.71 | 25
308.15 K, x1 = 0.7492 | 772.95 | 25.8
308.15 K, x1 = 0.8645 | 769.89 | 26.7
308.15 K, x1 = 0.9101 | 768.68 | 27.1
308.15 K, x1 = 1 | 766.3 | 28.1
313.15 K, x1 = 0.1255 | 783.74 | 22.4
313.15 K, x1 = 0.2452 | 780.62 | 22.7
313.15 K, x1 = 0.3466 | 777.99 | 23
313.15 K, x1 = 0.4995 | 774.01 | 23.8
313.15 K, x1 = 0.6449 | 770.23 | 24.6
313.15 K, x1 = 0.7492 | 767.52 | 25.4
313.15 K, x1 = 0.8645 | 764.52 | 26.3
313.15 K, x1 = 0.9101 | 763.34 | 26.8
313.15 K, x1 = 1 | 761 | 27.7
